Assay results from patent publication US20080125496A1, “ANTIMICROBIAL FLAVOR AND ORAL CARE COMPOSITION CONTAINING THE SAME” (TAKASAGO INTERNATIONAL CORPORATION, priority 2001, published 2008).
Converted amounts (≈) assume the structure as drawn. Like-named read-outs stand apart in the source and are kept apart here.

Legend:
Type in all cases: cell-based
[1] = test system: Actinomyces naeslundii JCM 8350; assay: MIC by agar plate dilution method, Aa-1; conditions: for MIC: Actinomyces naeslundii, read-out: MIC Aa-1 (caries-related bacteria)
Protocol: (§1) The minimum inhibitory activities of the antimicrobial flavors of the invention on anaerobic oral bacteria were measured by an agar plate dilution method.
(§2) All the test strains were obtained from Riken (The Institute of Physical and Chemical Research). The names and abbreviations of the strains are shown in Table 1 below (The abbreviations are used in the following description).
(§3) Each test microorganism kept frozen (−80° C.) in glycerol at a concentration of 25% was thawed. A 100 μl portion of the suspension was inoculated into 10 ml of a liquid medium. A Gifu university anaerobic medium (GAM) (Nissui Pharmaceutical Co., Ltd) having added thereto Hemin (Tokyo Kasei) and Menadione (Sigma) was used for Su-1 and Fn-1. Schaedler Broth (BBL) having added thereto Hemin and Menadione was used for the other strains. The culture was anaerobically incubated at 37° C. for 72 hours by using BBL Gas Pack Anaerobic System. After the cultivation, the microbial cell suspension of Su-1 was 10-fold diluted to prepare an inoculum. The cultures of Fn-1 and Pg-1 were used as such as an inoculum. The cultures of Pt-1, Aa-1, and Av-1 were subjected to centrifugation, and the separated microbial cells were suspended in 2 ml of sterilized physiological saline to prepare the respective inoculums.
(§4) An agar medium prepared by adding 2% agar (Difco), Hemin, and Menadione to Trypticase Soy Broth (BBL) was used. A test sample (antimicrobial flavor) was dissolved in ethanol to prepare 2-fold serial dilutions. To 10 ml of the agar medium was added 100 μl of each dilution and stirred well. The agar medium was transferred to a petri dish (diameter: 9 cm) and solidified at room temperature. The solidified agar medium was inoculated with 5 μl of the inoculum by means of a multipoint inoculator (Microplanter MIT-P27, supplied by Sakuma Seisakusho), followed by culturing at 37° C. for 72 hours under anaerobic conditions. The growth of the test microorganism was compared with a blank petri dish (the agar medium to which 100 μl of ethanol had been added). The lowest sample concentration that inhibited growth was taken as MIC (ppm).
(§5) Antimicrobial activities (MIC; ppm) of the aromahygiene base (AHB) prepared in (1) and the antimicrobial flavor compositions prepared in (2) (Examples 2-1 to 2-3) and Comparative Examples 2-1 to 2-3 were measured in the same manner as in Example 1 (2).

[2] = test system: Prevotella intermedia JCM 6322; assay: MIC by agar plate dilution method, Pt-1; conditions: for MIC: Prevotella intermedia, read-out: MIC Pt-1 (paradentosis-related bacteria)
Protocol: as §1, §2, §3, §4, §5

[3] = test system: Streptococcus mutans JCM 5175; assay: MIC by agar plate dilution method, Su-1; conditions: for MIC: Streptococcus mutans, read-out: MIC Su-1 (caries-related bacteria)
Protocol: as §1, §2, §3, §4, §5

[4] = test system: Actinomyces viscosus JCM 8352; assay: MIC by agar plate dilution method, Av-1; conditions: for MIC: Actinomyces viscosus, read-out: MIC Av-1 (caries-related bacteria)
Protocol: as §1, §2, §3, §4, §5

[5] = test system: Porphyromonas gingivalis JCM 8525; assay: MIC by agar plate dilution method, Pg-1; conditions: for MIC: Porphyromonas gingivalis, read-out: MIC Pg-1 (paradentosis-related bacteria; head Fg-1 in Tables 2 and 3)
Protocol: as §1, §2, §3, §4, §5

[6] = test system: Fusobacterium nucleatum JCM 6328; assay: MIC by agar plate dilution method, Fn-1; conditions: for MIC: Fusobacterium nucleatum, read-out: MIC Fn-1 (paradentosis-related bacteria)
Protocol: as §1, §2, §3, §4, §5

[7] = agar medium, 37° C., 72 hours, anaerobic conditions
[8] = JCM8350, agar medium, 37° C., 72 hours, anaerobic conditions
[9] = JCM6322, agar medium, 37° C., 72 hours, anaerobic conditions
[10] = JCM5175, agar medium, 37° C., 72 hours, anaerobic conditions
[11] = JCM8352, agar medium, 37° C., 72 hours, anaerobic conditions
[12] = JCM6328, agar medium, 37° C., 72 hours, anaerobic conditions

| Molecule | MIC Aa-1 (caries-related bacteria) [1, 7] | MIC Pt-1 (paradentosis-related bacteria) [2, 7] | MIC Su-1 (caries-related bacteria) [3, 7] | MIC Av-1 (caries-related bacteria) [4, 7] | MIC Pg-1 (paradentosis-related bacteria; head Fg-1 in Tables 2 and 3) [5, 7] | MIC Fn-1 (paradentosis-related bacteria) [6, 7] | other results |
| --- | --- | --- | --- | --- | --- | --- | --- |
| CCCc1ccc(O)c(OC)c1 [Dihydroeugenol] | 500 ppm | 62.5 ppm | 1000 ppm | 500 ppm | 62.5 ppm | 500 ppm | – |
| CC(C)=CCC/C(C)=C/CCC(C)CCO (stereo not drawn) [Dihydrofarnesol] | 31.3 ppm | 7.8 ppm | 31.3 ppm | 62.5 ppm | 7.8 ppm | 31.3 ppm | – |
| CCCCCCCCCCCC=O [Dodecanal] | – | – | – | – | – | – | MIC [1, 8]: 500 µg/mL (≈ 2710 µM); MIC [2, 9]: 62.5 µg/mL (≈ 339 µM); MIC [3, 10]: 500 µg/mL (≈ 2710 µM); MIC [4, 11]: 500 µg/mL (≈ 2710 µM); MIC ([5]; JCM8525, agar medium, 37° C., 72 hours, anaerobic conditions): 62.5 µg/mL (≈ 339 µM); MIC [6, 12]: 125 µg/mL (≈ 678 µM) |
| O=C1CCCCCCCCCCC(=O)OCCO1 [Ethylenedodecanedioate] | >1000 ppm | >1000 ppm | >1000 ppm | 250 ppm | 31.3 ppm | >1000 ppm | – |
| CC(C=O)Cc1ccc2c(c1)OCO2 (stereo not drawn) [Helional] | 250 ppm | 1000 ppm | 1000 ppm | 500 ppm | 125 ppm | 1000 ppm | – |
| CC(C)Cc1ccc2ncccc2c1 [Isobutyl quinoline] | 250 ppm | 250 ppm | 1000 ppm | 250 ppm | 62.5 ppm | 1000 ppm | – |
| CC/C(=C\C[C@H]1CC=C(C)C1(C)C)CO [Levosandol] | 62.5 ppm | 31.3 ppm | 125 ppm | 62.5 ppm | 31.3 ppm | 62.5 ppm | – |
| CC(C=O)Cc1ccc(C(C)(C)C)cc1 (stereo not drawn) [Lilial] | 125 ppm | 62.5 ppm | 500 ppm | 500 ppm | 62.5 ppm | 500 ppm | – |
| COC(=O)c1c(C)cc(O)c(C)c1O [Methyl atrarate] | 62.5 ppm | 62.5 ppm | >1000 ppm | 62.5 ppm | 31.3 ppm | 125 ppm | – |
| CCC(O)/C(C)=C/C1(C)CC2C=CC1C2 (stereo not drawn) [Methyl sandeflor] | 250 ppm | 62.5 ppm | 500 ppm | 125 ppm | 62.5 ppm | 250 ppm | – |
| C=CC(C)(O)CC/C=C(\C)CCC=C(C)C (stereo not drawn) [Neroridol] | 125 ppm | 31.3 ppm | 500 ppm | 125 ppm | 31.3 ppm | 50 ppm | – |
| CC(=O)c1cc2c(cc1C)C(C)(C)C(C)C2(C)C (stereo not drawn) [Phantolid] | >1000 ppm | 62.5 ppm | >1000 ppm | >1000 ppm | 31.3 ppm | >1000 ppm | – |
| O=CCc1ccccc1 [Phenylacetaldehyde] | – | – | – | – | – | – | MIC [1, 8]: 500 µg/mL (≈ 4160 µM); MIC [2, 9]: 15.6 µg/mL (≈ 130 µM); MIC [3, 10]: > 1000 µg/mL; MIC [4, 11]: 250 µg/mL (≈ 2080 µM); MIC ([5]; JCM8525, 72 h): 15.6 µg/mL (≈ 130 µM); MIC [6, 12]: 1000 µg/mL (≈ 8320 µM) |
| CC1=CCC(CCC(C)C(C)O)C1(C)C (stereo not drawn) [Sandalore] | 125 ppm | 31.3 ppm | 250 ppm | 125 ppm | 31.3 ppm | 125 ppm | – |
| CC1=CCC(C/C=C(\C)CO)C1(C)C (stereo not drawn) [Santalinol] | 62.5 ppm | 31.3 ppm | 250 ppm | 62.5 ppm | 15.6 ppm | 125 ppm | – |
| CC(=O)c1cc2c(cc1C)C(C)(C)C(C)CC2(C)C (stereo not drawn) [Tonalid] | – | – | – | – | – | – | MIC ([1]; JCM8350, 72 h): > 1000 µg/mL; MIC ([2]; JCM6322, 72 h): 62.5 µg/mL (≈ 242 µM); MIC ([3]; JCM5175, 72 h): > 1000 µg/mL; MIC ([4]; JCM8352, 72 h): > 1000 µg/mL; MIC ([5]; JCM8525, 72 h): 15.6 µg/mL (≈ 60.4 µM); MIC ([6]; JCM6328, 72 h): > 1000 µg/mL |
| COc1ccccc1C=CC=O [o-Methoxycinnamic aldehyde] | 250 ppm | 62.5 ppm | 250 ppm | 250 ppm | 7.8 ppm | 250 ppm | – |
| Isocamphylcyclohexanol | 31.3 ppm | 3.9 ppm | 31.3 ppm | 31.3 ppm | 3.9 ppm | 31.3 ppm | – |
